System: small intestinal transit
Assay: Small intestinal transit in mice, charcoal meal method
Format: in vivo
Conditions: reference, dose not given
Procedure: Drugs that delay the small intestinal transit time have beneficial effects on ulcer patients. The effect of the Indigofera […] extract on small intestinal transit in mice was tested using the charcoal meal method.

NC[C@H](O)c1ccc(O)c(O)c1 [Noradrenaline]
% distance traveled: 64.6 ± 9.0% | % inhibition: 35.4%
